Assay results published in paper PMC7522982, “PKIS deep dive yields a chemical starting point for dark kinases and a cell active BRSK2 inhibitor” (Scientific Reports, 2020).

What was measured:
GAK = test system: GAK; design: method as in earlier work; settings: cited from earlier work
PDGFRα = test system: PDGFRα; design: method as in PMID 26501955; settings: cited from earlier work
DCLK3/DCAMKL3 = DCLK3/DCAMKL3 (Homo sapiens, UniProt Q9C098); assay: DiscoverX scanMAX competition binding assay; design: purchased Eurofins DiscoverX Corporation
Chain of DCLK3/DCAMKL3 (Q9C098 whole entry): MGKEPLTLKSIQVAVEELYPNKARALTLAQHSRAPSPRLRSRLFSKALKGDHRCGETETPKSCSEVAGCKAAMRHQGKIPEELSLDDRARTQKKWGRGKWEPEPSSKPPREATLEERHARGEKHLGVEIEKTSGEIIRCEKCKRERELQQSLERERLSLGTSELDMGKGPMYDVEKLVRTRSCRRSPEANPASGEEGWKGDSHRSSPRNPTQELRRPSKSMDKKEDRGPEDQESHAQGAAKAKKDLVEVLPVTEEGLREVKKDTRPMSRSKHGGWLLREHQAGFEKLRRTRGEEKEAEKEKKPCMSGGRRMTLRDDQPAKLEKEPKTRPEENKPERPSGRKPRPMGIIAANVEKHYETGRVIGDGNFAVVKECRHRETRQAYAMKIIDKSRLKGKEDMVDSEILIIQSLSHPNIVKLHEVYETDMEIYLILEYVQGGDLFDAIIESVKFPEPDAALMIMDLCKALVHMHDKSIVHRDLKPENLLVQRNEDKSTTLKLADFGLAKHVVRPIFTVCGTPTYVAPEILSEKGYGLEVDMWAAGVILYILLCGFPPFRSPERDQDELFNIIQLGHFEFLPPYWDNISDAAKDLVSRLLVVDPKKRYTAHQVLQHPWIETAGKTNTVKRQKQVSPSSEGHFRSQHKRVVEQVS
Text: (§1) Based on its narrow profile when tested in the combined Nanosyn and TSA panels, GW296115 was included in the recently released Kinase Chemogenomic Set (KCGS)[15]. All of the data presented in the Introduction section was collected prior to the inclusion of GW296115 in KCGS and everything that follows has been subsequently generated. Since its inclusion in PKIS and more recently KCGS, we have carried out a broader round of screening at DiscoverX. This profiling data has not been previously released and is reported here for the first time. GW296115 was profiled against 403 wild type human kinases at 1 μM using the DiscoverX scanMAX screening platform, which employs an active site-directed competition binding assay to quantitatively measure interactions between test compounds and kinases, [16]. GW296115 inhibited 25 kinases > 90% at 1 μM, resulting in a selectivity index (S10) of 0.062 at 1 μM (Table S2, Fig. 1C)[17].
(§2) The scanMAX assays were performed at Eurofins DiscoverX Corporation as previously described.

PIM2 = PIM2 (Homo sapiens, UniProt Q9P1W9); assay: DiscoverX scanMAX competition binding assay; design: purchased Eurofins DiscoverX Corporation
Chain of PIM2 (Q9P1W9 whole entry): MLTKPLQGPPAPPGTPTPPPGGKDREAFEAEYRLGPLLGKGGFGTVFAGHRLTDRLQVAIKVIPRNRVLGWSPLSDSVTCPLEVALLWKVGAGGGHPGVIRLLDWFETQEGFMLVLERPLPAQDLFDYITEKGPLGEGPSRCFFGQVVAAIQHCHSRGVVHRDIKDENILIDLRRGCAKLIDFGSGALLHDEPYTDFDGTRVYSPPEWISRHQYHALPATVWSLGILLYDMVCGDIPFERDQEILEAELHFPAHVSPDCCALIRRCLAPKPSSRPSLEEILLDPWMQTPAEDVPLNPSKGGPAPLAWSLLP
Text: as §1, §2

ROS1 = ROS1 (Homo sapiens, UniProt P08922); assay: DiscoverX scanMAX competition binding assay; design: purchased Eurofins DiscoverX Corporation
Text: as §1, §2

NUAK1/ARK5 = NUAK1/ARK5 (Homo sapiens, UniProt O60285); assay: DiscoverX scanMAX competition binding assay; design: purchased Eurofins DiscoverX Corporation
Chain of NUAK1/ARK5 (O60285 whole entry): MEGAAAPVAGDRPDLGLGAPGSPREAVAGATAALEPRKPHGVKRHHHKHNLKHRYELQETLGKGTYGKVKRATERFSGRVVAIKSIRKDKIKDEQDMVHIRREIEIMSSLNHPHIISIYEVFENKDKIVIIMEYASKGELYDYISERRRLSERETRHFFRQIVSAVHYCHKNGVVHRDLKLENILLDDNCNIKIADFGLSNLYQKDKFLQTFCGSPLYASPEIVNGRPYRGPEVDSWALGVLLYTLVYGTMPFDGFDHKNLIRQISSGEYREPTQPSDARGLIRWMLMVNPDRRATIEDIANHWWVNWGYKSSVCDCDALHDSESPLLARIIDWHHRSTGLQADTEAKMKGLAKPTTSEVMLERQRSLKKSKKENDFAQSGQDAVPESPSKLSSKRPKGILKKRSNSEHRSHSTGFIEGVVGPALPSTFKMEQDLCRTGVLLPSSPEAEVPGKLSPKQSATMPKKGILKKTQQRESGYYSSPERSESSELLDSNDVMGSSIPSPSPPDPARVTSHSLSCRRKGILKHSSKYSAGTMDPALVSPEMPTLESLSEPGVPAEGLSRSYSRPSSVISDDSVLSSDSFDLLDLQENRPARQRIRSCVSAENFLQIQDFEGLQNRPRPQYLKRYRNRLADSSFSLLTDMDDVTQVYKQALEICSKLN
Text: as §1, §2

BRSK2 = target: T1, BRSK2 (Homo sapiens, UniProt Q8IWQ3); assay: DiscoverX scanMAX competition binding assay; design: purchased Eurofins DiscoverX Corporation
T1 sequence (Q8IWQ3 1-736): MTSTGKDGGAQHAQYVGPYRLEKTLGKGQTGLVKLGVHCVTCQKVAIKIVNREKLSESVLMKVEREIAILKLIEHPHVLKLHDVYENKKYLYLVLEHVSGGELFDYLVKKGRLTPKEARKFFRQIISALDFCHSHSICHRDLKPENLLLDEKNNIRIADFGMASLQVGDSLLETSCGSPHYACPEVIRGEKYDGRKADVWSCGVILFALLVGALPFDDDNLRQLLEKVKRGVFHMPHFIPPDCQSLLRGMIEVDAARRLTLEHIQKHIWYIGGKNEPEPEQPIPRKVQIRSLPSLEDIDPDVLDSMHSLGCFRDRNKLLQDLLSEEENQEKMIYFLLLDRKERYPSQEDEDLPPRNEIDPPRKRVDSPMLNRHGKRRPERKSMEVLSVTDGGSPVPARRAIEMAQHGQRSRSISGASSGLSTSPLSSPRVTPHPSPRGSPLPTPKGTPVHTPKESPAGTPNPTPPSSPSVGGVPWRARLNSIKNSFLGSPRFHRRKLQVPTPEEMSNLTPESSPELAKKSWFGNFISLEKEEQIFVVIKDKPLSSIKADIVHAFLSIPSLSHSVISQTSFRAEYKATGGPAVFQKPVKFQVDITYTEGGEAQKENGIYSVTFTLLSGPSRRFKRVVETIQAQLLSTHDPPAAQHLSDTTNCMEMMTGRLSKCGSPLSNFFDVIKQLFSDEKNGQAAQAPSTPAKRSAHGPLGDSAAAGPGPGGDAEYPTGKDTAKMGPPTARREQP
Text: as §1, §2

SGK3 = SGK3 (Homo sapiens, UniProt Q96BR1); assay: DiscoverX scanMAX competition binding assay; design: purchased Eurofins DiscoverX Corporation
Chain of SGK3 (Q96BR1 whole entry): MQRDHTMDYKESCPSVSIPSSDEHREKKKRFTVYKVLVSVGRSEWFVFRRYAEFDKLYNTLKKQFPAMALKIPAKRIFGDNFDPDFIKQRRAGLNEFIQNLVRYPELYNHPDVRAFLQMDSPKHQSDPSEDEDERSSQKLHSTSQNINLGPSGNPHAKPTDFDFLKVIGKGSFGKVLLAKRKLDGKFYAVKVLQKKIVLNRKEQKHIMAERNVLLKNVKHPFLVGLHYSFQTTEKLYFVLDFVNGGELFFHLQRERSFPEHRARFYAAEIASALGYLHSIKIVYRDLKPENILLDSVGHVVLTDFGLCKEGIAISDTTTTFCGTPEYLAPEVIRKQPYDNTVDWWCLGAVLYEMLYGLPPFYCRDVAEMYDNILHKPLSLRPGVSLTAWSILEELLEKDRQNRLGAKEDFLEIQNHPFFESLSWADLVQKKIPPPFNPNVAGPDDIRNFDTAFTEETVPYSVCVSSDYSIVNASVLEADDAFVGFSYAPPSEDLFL
Text: as §1, §2

AXL = AXL (Homo sapiens, UniProt P30530); assay: DiscoverX scanMAX competition binding assay; design: purchased Eurofins DiscoverX Corporation
Text: as §1, §2

PHKG1 = PHKG1 (Homo sapiens, UniProt Q16816); assay: DiscoverX scanMAX competition binding assay; design: purchased Eurofins DiscoverX Corporation
Chain of PHKG1 (Q16816 whole entry): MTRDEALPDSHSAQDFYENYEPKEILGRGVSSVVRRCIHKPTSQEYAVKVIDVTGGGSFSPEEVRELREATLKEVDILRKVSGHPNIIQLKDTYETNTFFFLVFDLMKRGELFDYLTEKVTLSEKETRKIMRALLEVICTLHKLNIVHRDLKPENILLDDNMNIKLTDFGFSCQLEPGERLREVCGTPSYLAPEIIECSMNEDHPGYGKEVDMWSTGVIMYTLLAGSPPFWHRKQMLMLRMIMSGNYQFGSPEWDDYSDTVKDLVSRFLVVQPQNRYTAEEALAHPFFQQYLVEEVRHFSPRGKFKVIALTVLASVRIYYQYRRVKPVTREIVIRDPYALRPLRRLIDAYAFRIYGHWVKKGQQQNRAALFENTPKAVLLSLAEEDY
Text: as §1, §2

DAPK1 = DAPK1 (Homo sapiens, UniProt P53355); assay: DiscoverX scanMAX competition binding assay; design: purchased Eurofins DiscoverX Corporation
Chain of DAPK1 (P53355 whole entry): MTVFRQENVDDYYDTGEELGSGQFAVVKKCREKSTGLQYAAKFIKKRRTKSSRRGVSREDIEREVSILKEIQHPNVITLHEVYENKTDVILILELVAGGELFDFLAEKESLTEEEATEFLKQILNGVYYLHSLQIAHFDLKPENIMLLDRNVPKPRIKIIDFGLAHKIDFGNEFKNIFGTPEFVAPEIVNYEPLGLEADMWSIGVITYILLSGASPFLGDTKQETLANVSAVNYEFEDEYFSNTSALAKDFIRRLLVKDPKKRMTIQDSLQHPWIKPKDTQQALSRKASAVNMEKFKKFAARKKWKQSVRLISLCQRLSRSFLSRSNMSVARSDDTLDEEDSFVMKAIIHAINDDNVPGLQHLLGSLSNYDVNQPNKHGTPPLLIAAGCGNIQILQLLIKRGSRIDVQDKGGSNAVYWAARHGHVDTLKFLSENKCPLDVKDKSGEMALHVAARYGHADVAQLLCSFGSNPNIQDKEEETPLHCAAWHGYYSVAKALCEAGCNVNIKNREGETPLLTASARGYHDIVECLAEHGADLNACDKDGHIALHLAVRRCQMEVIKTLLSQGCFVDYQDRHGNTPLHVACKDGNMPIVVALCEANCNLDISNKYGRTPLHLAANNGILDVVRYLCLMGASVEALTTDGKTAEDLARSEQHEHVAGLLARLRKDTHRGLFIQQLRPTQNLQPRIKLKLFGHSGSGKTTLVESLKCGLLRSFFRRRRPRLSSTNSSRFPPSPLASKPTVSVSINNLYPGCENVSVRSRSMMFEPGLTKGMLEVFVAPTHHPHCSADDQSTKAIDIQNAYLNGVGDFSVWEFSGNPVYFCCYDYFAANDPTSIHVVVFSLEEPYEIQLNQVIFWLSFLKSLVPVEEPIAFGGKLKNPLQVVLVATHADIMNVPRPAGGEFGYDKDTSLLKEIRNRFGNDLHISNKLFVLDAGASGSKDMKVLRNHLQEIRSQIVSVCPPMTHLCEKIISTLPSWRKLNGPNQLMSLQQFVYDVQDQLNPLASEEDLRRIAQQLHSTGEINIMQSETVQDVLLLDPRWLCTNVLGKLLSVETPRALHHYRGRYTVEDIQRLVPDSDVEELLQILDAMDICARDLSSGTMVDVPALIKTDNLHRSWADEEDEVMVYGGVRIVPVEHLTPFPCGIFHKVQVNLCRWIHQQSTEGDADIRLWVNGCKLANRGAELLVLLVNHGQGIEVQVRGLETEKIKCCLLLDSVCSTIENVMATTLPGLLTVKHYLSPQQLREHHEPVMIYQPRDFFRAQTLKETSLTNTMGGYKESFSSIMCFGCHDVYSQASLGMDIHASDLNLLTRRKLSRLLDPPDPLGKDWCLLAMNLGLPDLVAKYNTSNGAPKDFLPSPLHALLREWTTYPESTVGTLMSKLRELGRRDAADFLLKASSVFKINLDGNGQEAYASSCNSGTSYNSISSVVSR
Text: as §1, §2

DMPK = DMPK (Homo sapiens, UniProt Q09013); assay: DiscoverX scanMAX competition binding assay; design: purchased Eurofins DiscoverX Corporation
Chain of DMPK (Q09013 whole entry): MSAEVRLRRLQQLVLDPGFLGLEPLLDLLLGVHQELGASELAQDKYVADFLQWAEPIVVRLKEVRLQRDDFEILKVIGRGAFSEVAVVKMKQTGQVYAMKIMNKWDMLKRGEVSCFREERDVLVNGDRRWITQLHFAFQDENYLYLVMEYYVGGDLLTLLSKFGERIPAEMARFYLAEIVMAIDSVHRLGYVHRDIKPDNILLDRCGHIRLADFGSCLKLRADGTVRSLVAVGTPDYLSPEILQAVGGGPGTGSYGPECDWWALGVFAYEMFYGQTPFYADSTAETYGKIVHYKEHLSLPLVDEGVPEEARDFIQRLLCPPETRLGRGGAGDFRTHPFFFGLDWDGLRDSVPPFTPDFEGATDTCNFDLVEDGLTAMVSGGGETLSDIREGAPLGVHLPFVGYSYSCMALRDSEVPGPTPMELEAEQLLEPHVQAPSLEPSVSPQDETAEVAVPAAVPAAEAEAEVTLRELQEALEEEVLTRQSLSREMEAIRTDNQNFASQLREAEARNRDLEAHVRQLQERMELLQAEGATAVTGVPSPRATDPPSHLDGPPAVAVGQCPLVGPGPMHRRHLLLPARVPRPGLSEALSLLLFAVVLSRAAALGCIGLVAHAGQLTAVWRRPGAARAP
Text: as §1, §2

BRSK1 = target: T2, BRSK1 (Homo sapiens, UniProt Q8TDC3); assay: DiscoverX scanMAX competition binding assay; design: purchased Eurofins DiscoverX Corporation
T2 sequence (Q8TDC3 1-778): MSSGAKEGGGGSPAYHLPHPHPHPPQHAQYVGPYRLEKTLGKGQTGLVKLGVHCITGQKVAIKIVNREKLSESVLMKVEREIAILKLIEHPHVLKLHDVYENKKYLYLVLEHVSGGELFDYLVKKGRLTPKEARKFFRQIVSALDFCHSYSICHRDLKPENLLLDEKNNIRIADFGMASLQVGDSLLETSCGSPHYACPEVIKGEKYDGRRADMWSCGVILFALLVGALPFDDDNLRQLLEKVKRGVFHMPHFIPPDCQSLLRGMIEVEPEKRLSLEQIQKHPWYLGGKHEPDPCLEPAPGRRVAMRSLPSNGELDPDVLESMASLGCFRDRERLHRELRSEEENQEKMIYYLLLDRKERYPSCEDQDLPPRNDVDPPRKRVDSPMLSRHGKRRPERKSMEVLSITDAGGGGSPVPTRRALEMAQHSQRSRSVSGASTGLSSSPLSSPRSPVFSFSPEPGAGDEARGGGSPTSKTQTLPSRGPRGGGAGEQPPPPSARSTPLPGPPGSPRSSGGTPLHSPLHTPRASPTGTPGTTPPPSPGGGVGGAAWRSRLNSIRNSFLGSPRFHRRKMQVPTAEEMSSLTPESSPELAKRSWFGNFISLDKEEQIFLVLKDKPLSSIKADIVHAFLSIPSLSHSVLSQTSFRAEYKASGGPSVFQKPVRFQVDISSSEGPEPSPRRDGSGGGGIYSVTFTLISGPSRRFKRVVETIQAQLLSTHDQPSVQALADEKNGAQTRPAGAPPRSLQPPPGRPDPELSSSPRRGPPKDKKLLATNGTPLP
Text: as §1, §2

Q: For `COc1ccc2[nH]c3c4[nH]c5ccc(OC)cc5c4c4c(c3c2c1)C(=O)NC4=O` [GW296115], which “TSA ΔTm at 10 μM (°C)” value (GAK) is on record?
A: 8.4 °C

Q: And the “Nanosyn % Inhibition at 1 μM” value (PDGFRα)?
A: 84%

Q: What about the inhibition at 1 µM (DCLK3/DCAMKL3) of the same compound?
A: 83%

Q: And the inhibition at 1 µM (PIM2)?
A: 83%

Q: What about the inhibition at 1 µM (ROS1) of the same compound?
A: 76%

Q: What about the inhibition at 1 µM (NUAK1/ARK5) of the same compound?
A: 85%

Q: And the inhibition at 1 µM (BRSK2)?
A: 83%

Q: And the inhibition at 1 µM (SGK3)?
A: 86%

Q: What about the inhibition at 1 µM (AXL) of the same compound?
A: 75%

Q: What about the inhibition at 1 µM (PHKG1) of the same compound?
A: 82%

Q: What about the inhibition at 1 µM (DAPK1) of the same compound?
A: 78%

Q: And the inhibition at 1 µM (DMPK)?
A: 75%

Q: What about the inhibition at 1 µM (BRSK1) of the same compound?
A: 82%
